Results as given in ChEMBL document CHEMBL5665443, “Enzyme Inhibitor Single Concentration assay results for EUbOPEN Chemogenomics Library” (2024).
Where a SMILES comes first, the peptide text is derived from it.

Tests used:
Details in all cases: Hit No
[1] = target: G/T mismatch-specific thymine DNA glycosylase (Homo sapiens) (UniProt Q13569);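 further: human TDG cleavage of quenched duplex DNA oligonucleotides coupled to APE1, strand release read as fluorescence at 594 nm, inhibition of TDG activity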
Description: Inhibition of TDG by quantifying inhibition of TDG-mediated cleavage and dissociation of quenched duplex DNA oligonucleotides, measured as fluorescence at 594 nm. To generate a functional strand incision and increase turn-over this assay is coupled to APE1.

[2] = target: Endonuclease 8-like 1 (Homo sapiens) (UniProt Q96FI4);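 further: fluorescence at 594 nm from quenched duplex DNA oligonucleotides released by NEIL1 cleavage and strand separation, reported as reduction of this enzyme activity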
Description: Inhibition of NEIL1 by quantifying inhibition of NEIL1-mediated cleavage and dissociation of quenched duplex DNA oligonucleotides, measured as fluorescence at 594 nm.

[3] = target: T1, Single-strand selective monofunctional uracil DNA glycosylase (Homo sapiens) (UniProt Q53HV7);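 further: enzymatic SMUG1 assay coupled with APE1, reading fluorescence at 594 nm released when a quenched double-stranded DNA oligonucleotide substrate is cleaved and separated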
T1 sequence (whole entry): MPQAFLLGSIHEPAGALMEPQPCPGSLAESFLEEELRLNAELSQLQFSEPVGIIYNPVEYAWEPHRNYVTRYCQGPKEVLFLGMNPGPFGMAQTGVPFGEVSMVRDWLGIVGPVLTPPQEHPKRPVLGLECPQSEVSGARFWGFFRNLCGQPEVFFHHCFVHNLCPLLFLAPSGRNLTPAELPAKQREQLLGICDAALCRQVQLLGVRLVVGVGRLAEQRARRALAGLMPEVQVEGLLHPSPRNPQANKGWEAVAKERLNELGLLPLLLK
Description: Inhibition of SMUG1 by quantifying inhibition of SMUG1-mediated cleavage and dissociation of quenched duplex DNA oligonucleotides, measured as fluorescence at 594 nm. To generate a functional strand incision and increase turn-over this assay is coupled to APE1.

[4] = target: T2, Adenine DNA glycosylase (Homo sapiens) (UniProt Q9UIF7);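 further: human MUTYH activity read as 594 nm fluorescence from cleavage and release of a quenched DNA duplex, coupled with APE1 for strand incision, lower signal meaning inhibition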
T2 sequence (whole entry): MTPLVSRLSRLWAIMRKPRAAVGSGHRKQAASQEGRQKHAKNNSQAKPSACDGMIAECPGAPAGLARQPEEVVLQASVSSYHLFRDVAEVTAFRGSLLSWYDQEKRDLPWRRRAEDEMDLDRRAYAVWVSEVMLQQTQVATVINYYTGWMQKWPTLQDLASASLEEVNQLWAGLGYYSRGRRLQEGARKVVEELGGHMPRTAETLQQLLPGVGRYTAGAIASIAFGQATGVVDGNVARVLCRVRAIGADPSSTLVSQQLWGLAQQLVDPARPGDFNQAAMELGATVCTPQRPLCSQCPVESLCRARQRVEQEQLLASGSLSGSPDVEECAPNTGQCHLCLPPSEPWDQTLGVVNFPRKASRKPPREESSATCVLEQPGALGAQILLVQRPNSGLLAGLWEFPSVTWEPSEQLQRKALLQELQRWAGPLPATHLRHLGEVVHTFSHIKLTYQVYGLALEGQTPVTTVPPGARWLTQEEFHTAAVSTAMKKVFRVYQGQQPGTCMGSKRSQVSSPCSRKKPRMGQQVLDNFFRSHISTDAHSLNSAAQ
Description: Inhibition of MUTYH by quantifying inhibition of MUTYH-mediated cleavage and dissociation of quenched duplex DNA oligonucleotides, measured as fluorescence at 594 nm. To generate a functional strand incision and increase turn-over this assay is coupled to APE1.

[5] = target: N-glycosylase/DNA lyase (Homo sapiens) (UniProt O15527);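 further: OGG1 cleavage of a quenched duplex DNA oligonucleotide, coupled to APE1 for strand incision, read as fluorescence at 594 nm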
Description: Inhibition of OGG1 by quantifying inhibition of OGG1-mediated cleavage and dissociation of quenched duplex DNA oligonucleotides, measured as fluorescence at 594 nm. To generate a functional strand incision and increase turn-over this assay is coupled to APE1.

[6] = target: T3, Endonuclease 8-like 2 (Homo sapiens) (UniProt Q969S2);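 further: fluorescence at 594 nm reports NEIL2 cutting and release of a quenched double-stranded DNA oligo substrate, reduced signal read as inhibition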
T3 sequence (whole entry): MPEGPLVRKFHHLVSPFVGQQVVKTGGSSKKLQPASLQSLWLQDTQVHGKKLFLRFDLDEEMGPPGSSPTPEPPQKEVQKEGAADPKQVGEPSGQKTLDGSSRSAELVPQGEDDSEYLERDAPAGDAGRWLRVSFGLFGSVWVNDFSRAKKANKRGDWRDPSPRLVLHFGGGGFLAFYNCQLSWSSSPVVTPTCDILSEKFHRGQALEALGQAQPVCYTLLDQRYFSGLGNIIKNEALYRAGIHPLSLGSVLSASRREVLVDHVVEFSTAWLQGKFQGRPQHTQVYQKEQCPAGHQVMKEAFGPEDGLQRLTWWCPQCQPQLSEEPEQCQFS
Description: Inhibition of NEIL2 by quantifying inhibition of NEIL2-mediated cleavage and dissociation of quenched duplex DNA oligonucleotides, measured as fluorescence at 594 nm.

[7] = target: Methyl-CpG-binding domain protein 4 (Homo sapiens) (UniProt O95243);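 further: MBD4 activity read as fluorescence at 594 nm from cleavage and release of a quenched duplex DNA oligonucleotide, with APE1 coupled to incise the strand and raise turnover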
Description: Inhibition of MBD4 by quantifying inhibition of MBD4-mediated cleavage and dissociation of quenched duplex DNA oligonucleotides, measured as fluorescence at 594 nm. To generate a functional strand incision and increase turn-over this assay is coupled to APE1.

[8] = target: Uracil-DNA glycosylase (Homo sapiens) (UniProt P13051);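 further: UNG excision on a quenched double-stranded DNA oligo probe, with APE1 added for strand incision and turnover, read as fluorescence at 594 nm as strands separate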
Description: Inhibition of UNG by quantifying inhibition of UNG-mediated cleavage and dissociation of quenched duplex DNA oligonucleotides, measured as fluorescence at 594 nm. To generate a functional strand incision and increase turn-over this assay is coupled to APE1.

[9] = target: T4, Endonuclease III-like protein 1 (Homo sapiens) (UniProt P78549);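 further: enzyme assay tracking NTHL1 cutting and release of a quenched double-stranded DNA oligo substrate, read as fluorescence at 594 nm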
T4 sequence (whole entry): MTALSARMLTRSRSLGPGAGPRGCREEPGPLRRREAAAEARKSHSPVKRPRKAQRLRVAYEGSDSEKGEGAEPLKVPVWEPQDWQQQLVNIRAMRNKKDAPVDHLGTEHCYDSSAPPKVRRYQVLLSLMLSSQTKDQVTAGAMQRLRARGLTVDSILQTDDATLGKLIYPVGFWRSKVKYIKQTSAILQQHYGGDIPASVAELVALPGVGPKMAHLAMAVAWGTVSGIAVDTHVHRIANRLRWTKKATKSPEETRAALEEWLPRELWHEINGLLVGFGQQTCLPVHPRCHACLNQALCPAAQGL
Description: Inhibition of NTHL1 by quantifying inhibition of NTHL1-mediated cleavage and dissociation of quenched duplex DNA oligonucleotides, measured as fluorescence at 594 nm.

Chain of Methyl-CpG-binding domain protein 4 (Homo sapiens) (O95243 whole entry, the tested form may be a part): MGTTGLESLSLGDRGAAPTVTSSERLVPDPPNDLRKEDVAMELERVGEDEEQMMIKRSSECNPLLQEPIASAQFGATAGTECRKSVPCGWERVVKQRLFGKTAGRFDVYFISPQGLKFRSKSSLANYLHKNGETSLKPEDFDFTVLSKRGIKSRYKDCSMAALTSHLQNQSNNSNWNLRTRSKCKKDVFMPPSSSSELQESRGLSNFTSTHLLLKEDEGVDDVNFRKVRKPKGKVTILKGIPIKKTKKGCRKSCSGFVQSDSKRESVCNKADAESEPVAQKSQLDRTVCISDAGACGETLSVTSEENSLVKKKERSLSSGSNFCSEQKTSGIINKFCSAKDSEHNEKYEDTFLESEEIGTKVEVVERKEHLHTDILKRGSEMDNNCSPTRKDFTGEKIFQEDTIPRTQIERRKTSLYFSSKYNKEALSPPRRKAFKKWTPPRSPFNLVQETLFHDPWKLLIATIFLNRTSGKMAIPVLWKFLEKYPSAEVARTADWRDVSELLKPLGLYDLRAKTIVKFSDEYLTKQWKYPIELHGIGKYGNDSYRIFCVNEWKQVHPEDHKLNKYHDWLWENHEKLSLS
Chain of N-glycosylase/DNA lyase (Homo sapiens) (O15527 whole entry): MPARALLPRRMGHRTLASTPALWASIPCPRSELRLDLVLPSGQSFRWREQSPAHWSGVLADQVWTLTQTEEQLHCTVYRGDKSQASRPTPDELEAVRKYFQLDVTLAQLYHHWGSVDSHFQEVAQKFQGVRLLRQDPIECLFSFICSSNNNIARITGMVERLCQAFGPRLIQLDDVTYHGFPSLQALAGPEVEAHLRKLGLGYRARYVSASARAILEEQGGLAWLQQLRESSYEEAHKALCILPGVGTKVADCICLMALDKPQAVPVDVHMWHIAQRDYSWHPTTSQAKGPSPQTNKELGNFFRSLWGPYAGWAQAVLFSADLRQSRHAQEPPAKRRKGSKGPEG
Chain of G/T mismatch-specific thymine DNA glycosylase (Homo sapiens) (Q13569 whole entry): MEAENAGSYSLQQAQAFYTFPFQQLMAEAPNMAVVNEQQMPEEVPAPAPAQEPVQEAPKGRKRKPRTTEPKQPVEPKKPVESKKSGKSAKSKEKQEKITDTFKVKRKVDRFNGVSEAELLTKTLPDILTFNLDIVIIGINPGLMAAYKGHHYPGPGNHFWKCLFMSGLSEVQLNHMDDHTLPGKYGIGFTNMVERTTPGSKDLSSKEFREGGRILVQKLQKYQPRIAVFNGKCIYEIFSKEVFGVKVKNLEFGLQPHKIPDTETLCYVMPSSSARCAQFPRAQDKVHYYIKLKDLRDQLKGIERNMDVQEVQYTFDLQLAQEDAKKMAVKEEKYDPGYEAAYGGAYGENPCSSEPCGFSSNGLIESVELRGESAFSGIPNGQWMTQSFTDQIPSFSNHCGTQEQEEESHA
Chain of Endonuclease 8-like 1 (Homo sapiens) (Q96FI4 whole entry): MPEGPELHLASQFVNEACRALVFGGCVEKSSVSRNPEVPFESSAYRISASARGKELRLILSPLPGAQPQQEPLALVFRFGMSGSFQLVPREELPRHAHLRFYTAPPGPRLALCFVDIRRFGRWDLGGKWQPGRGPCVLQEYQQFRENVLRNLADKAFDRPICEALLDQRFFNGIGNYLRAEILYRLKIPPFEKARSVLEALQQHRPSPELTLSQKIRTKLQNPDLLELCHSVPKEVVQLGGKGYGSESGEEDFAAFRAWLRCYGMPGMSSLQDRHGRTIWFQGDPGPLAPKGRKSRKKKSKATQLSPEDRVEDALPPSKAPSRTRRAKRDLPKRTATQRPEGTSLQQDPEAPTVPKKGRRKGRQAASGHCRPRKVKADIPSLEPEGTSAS
Chain of Uracil-DNA glycosylase (Homo sapiens) (P13051 whole entry): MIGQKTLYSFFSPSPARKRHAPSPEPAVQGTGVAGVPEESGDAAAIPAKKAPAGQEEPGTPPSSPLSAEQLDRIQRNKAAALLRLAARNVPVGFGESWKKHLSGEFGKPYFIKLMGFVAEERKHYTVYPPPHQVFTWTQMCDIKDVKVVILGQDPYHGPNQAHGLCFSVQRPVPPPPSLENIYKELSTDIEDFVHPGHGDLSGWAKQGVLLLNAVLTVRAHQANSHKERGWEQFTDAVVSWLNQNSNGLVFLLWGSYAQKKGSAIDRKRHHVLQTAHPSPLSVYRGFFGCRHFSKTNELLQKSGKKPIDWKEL

SMILES	inhibition ([1]; Compound Concentration 10.0 uM)	inhibition ([2]; Compound Concentration 10.0 uM)	inhibition ([3]; Compound Concentration 10.0 uM)	inhibition ([4]; Compound Concentration 10.0 uM)	inhibition ([5]; Compound Concentration 10.0 uM)	inhibition ([6]; Compound Concentration 10.0 uM)	inhibition ([7]; Compound Concentration 10.0 uM)	inhibition ([1]; Compound Concentration 1.0 uM)	inhibition ([2]; Compound Concentration 1.0 uM)	inhibition ([3]; Compound Concentration 1.0 uM)	inhibition ([8]; Compound Concentration 1.0 uM)	inhibition ([4]; Compound Concentration 1.0 uM)	inhibition ([7]; Compound Concentration 1.0 uM)	inhibition ([6]; Compound Concentration 1.0 uM)	inhibition ([5]; Compound Concentration 1.0 uM)	inhibition ([8]; Compound Concentration 10.0 uM)	inhibition ([9]; Compound Concentration 1.0 uM)	inhibition ([9]; Compound Concentration 10.0 uM)
COc1ccc(S(=O)(=O)c2cc(OC)ccc2S(=O)(=O)c2ccc([C@H](C)NS(C)(=O)=O)cc2)cc1	-5.72%	2.76%	4.18%	12.1%	-5.59%	4.76%	–	–	–	–	–	–	–	–	–	–	–	–
CC(C)C[C@@H]1NC(=O)[C@@H](C(C)C)NC(=O)[C@@H]2CCCN2C(=O)[C@@H](CC(=O)O)NC(=O)[C@@H](Cc2c[nH]c3ccccc23)NC1=O (HELM PEPTIDE1{L.[dW].[dD].P.[dV]}$PEPTIDE1,PEPTIDE1,1:R1-5:R2$$$V2.0)	0.54%	-3.47%	-0.372%	6.29%	–	0.764%	-8.68%	–	–	–	–	–	–	–	–	–	–	–
CN(c1ccnc(CNc2nc(Nc3ccc4c(c3)CC(=O)N4)ncc2C(F)(F)F)n1)S(C)(=O)=O	–	–	–	–	–	–	–	72%	1.52%	15.5%	0.644%	1.9%	26.2%	-6.14%	–	–	–	–
CN1CCN(c2ccc(OC(F)(F)F)c(Nc3ncc4c(n3)-c3c(c(C(N)=O)nn3CCO)CC4)c2)CC1	–	–	–	–	–	–	–	38.7%	1.33%	13.3%	3.38%	27.3%	–	-8.92%	-4.24%	–	–	–
Cc1c(CC(=O)O)c2cccnc2n1Cc1ccc(S(C)(=O)=O)cc1C(F)(F)F	-3.98%	0.834%	-4.39%	7.57%	-4.75%	7.75%	–	–	–	–	–	–	–	–	–	–	–	–
NC[C@H](O)c1ccc(O)c(O)c1	–	2.61%	–	-7.66%	-2.34%	-0.983%	–	–	–	–	–	–	–	–	–	–	–	–
CN1CC(=O)N=C1NC(=O)Nc1cccc(Cl)c1	-6.27%	-2.58%	-1.34%	3.99%	-2.01%	3.76%	–	–	–	–	–	–	–	–	–	–	–	–
COc1cccc([C@@H](C)NCCCc2ccccc2Cl)c1	6.54%	-0.352%	3.94%	-7.79%	-9.29%	–	–	–	–	–	–	–	–	–	–	–	–	–
CCOC(=O)c1c(/C(C#N)=C\N)c2ccc(Cl)c(Cl)c2n1C	–	–	–	–	–	–	–	41.6%	-2.9%	12.4%	0.379%	-2.85%	–	-5.96%	-3.98%	–	–	–
Cc1cc(C(=O)N2Cc3cnn(C)c3Nc3ccccc32)ccc1CNC(=O)N1CCC[C@H]1C(=S)N1CCCN(C)CC1	-7.26%	-1.83%	-2.21%	-9.83%	-7%	2.51%	–	–	–	–	–	–	–	–	–	–	–	–
Oc1cc2c(cc1O)C(c1ccccc1)CNCC2 (stereo unspecified)	16.1%	-0.945%	-4.15%	6.16%	-0.929%	7.5%	–	–	–	–	–	–	–	–	–	–	–	–
CC(C)Oc1ccccc1C(=O)Nc1ccccc1C(=O)Nc1cccc(S(=O)(=O)C(F)(F)F)c1	4.21%	-8.8%	–	8.72%	–	-0.483%	–	–	–	–	–	–	–	–	–	-8.11%	–	–
C[C@@](Cc1c[nH]c2ccccc12)(NC(=O)Nc1ccc([N+](=O)[O-])cc1)C(=O)NCC1(c2ccccn2)CCCCC1	0.518%	7.51%	0.936%	3.6%	-2.05%	5.26%	–	–	–	–	–	–	–	–	–	–	–	–
Cc1cc(C)c(-n2ccn3nc(-c4cccnc4)cc23)cc1NC(=O)c1cc(C#N)cc(S(F)(F)(F)(F)F)c1	–	–	–	–	–	–	–	50.8%	-7.27%	7.64%	1.49%	–	40%	-7.9%	1.96%	–	-3.66%	–
COc1cc(-c2cncc(-c3ccc(N4CCN(C(C)C)CC4)cc3)c2C)cc(F)c1C(=O)N1CCCC1	47.2%	3.31%	28.7%	–	12.1%	-8.65%	0.55%	–	–	–	–	–	–	–	–	7.27%	–	0.0872%
Cc1nc[nH]c1CCN	8.2%	-5.39%	-7.49%	-5.1%	-7.09%	-3.73%	–	–	–	–	–	–	–	–	–	–	–	–
CCCCOCCOc1nc(-c2ccc(C(=O)O)c(F)c2)sc1C	46.5%	6.68%	18.1%	–	14.4%	6.14%	64.4%	–	–	–	–	–	–	–	–	1.01%	–	-1.29%
Cc1cc(NC(=O)Nc2ccc(N(C)C)cc2)c2cc(F)cc(F)c2n1	9.41%	–	-2.31%	6.04%	–	–	6.31%	–	–	–	–	–	–	–	–	-7.93%	–	–
COc1cccc(Cn2cc(C(=O)Nc3ccc(C)c(S(=O)(=O)N4CCOCC4)c3)c(-c3ccc(C)cc3)n2)c1	97.5%	-9.23%	2.42%	–	11.1%	-7.38%	52.8%	–	–	–	–	–	–	–	–	-6.33%	–	1.34%
NS(=O)(=O)c1cc(NC(=O)C2(c3ccccc3Cl)CC2)ccc1Oc1cccc(Cl)c1	35.3%	-2.56%	17.9%	–	21.8%	3.34%	26.3%	–	–	–	–	–	–	–	–	-3.29%	–	-7.86%
COc1ccc(C(=O)N2CCN(C(=O)/C=C/c3ccc(Br)cc3)CC2)cc1	-0.119%	2.61%	-0.421%	16.7%	-3.17%	-6.97%	–	–	–	–	–	–	–	–	–	–	–	–
O=C(O)c1ccnc(N2CC(O)(c3ccc(OCc4c(-c5c(Cl)cccc5Cl)noc4C4CC4)cc3Cl)C2)c1	97.2%	-4.99%	16.5%	–	35.5%	3.34%	54.3%	–	–	–	–	–	–	–	–	4.51%	–	5.29%
C[C@@H](N)Cc1c[nH]cn1	19%	3.8%	-2.12%	-1.26%	-8%	-9.22%	–	–	–	–	–	–	–	–	–	-6.39%	–	–
CN1CCC[C@H]1c1cccnc1	-9.56%	4.6%	-4.08%	–	-8.49%	-0.35%	-6.38%	–	–	–	–	–	–	–	–	-2.67%	–	8%
CCn1c(CNC(=O)c2ncc(C)nc2N)[n+](CC)c2ccc(C(=O)N(C)CCN(C)C)cc21	100%	-4.53%	1.28%	–	14.2%	1.3%	47.5%	–	–	–	–	–	–	–	–	-0.563%	–	-6.55%
CS(=O)(=O)c1cc(C2(NC(=O)c3cncc4c3cnn4-c3ccc(F)cc3)CC2)ccn1	–	–	–	–	–	–	–	54.5%	-0.745%	7.38%	0.429%	–	53.3%	1.04%	-1.05%	–	0.0274%	–
Cc1c(NC(=O)c2cc(C(N)=O)nc3cc(F)ccc23)c(C(F)(F)F)nn1Cc1ccc(C#N)cc1	35.6%	-9.07%	19.9%	–	3.97%	8.19%	51.7%	–	–	–	–	–	–	–	–	1.44%	–	-9.83%
